Earlier results on one compound are cited in patent US12319654B2, “Inert nanocapsules” (THE UNIVERSITY COURT OF THE UNIVERSITY OF EDINBURGH, priority 2018, dated 2025).

For the data set the following is noted: free anion.

Take `[O]=[99Tc](=[O])(=[O])[O-]` [^99mTcO4^−]: the Clearance time entry was “ca. 30 mins”.
